Reference: patent publication US7189750B2, “Thiazole-based nitric oxide donors having at least two thiazole moieties and uses thereof” (priority 2004, dated 2007)
“Also recorded” adds a separate entry of the source.

Columns and labels:
[1] = test system: isolated rat aorta; experiment: In vitro vasorelaxation of epinephrine-contracted rat aortic rings (CCRC); type: cell-based
Excerpt: Male Sprague Dawley rats were anaesthetized using intraperitoneal injection of ketamine and xylazine (50 and 10 milligram per kilogram, respectively) and the thoracic aorta, the large upper portion of the descending aorta, starting at the caudal border of the chest bone, was removed thereafter, while carefully removing the paraadventetial tissue surrounding the vessel. Aortae were cut into rings of 4–5 millimeters and mounted onto the tissue path. The path buffer (Krebs-bicrbonate) was constantly gassed with carbogen and maintained at 37° C. The rings were preloaded under 2 g tension and equilibrated for 90 minutes, while refreshing the buffer every 15 minutes. After stabilization, the rings were contracted with epinephrine (1 μM). Cumulative Concentration-Response Curves (CCRC) were measured for the vasorelaxing effect induced by adding various concentrations, ranging from 10^−10 M to 10^−5 M of Pet-2, Pet-3, Pet-7, Pet-8, Pet-12, Pet-24, Pet-43, Pet-59, Pet-147, Pet-152 and Pet-154, and glyceryltrinitrate (GTN), according to the procedure described in Feelich et al., Molecular Pharmacology, 56:243–253 (1999). The vehicle, which was used for this experiment was water:ethanol:propyleneglycol at proportional ratio of 1:1:1.
The vasorelaxing effect of the thiazole-derived NO-donors according to the present invention was measured on slices of thoracic aorta of rats contracted with epinephrine, as described hereinabove.

[2] = test system: isolated rat aorta; experiment: In vitro induction of tolerance and cross-tolerance: vasorelaxation of pre-exposed rat aortic rings; type: cell-based; settings: for EC50: Rattus norvegicus; for tolerance induction in vitro: rings pre-treated with epinephrine and then with the same compound (0.44 mM)
Experimental: Aortic rings were prepared as described hereinabove, and were exposed to 0.44 mM GTN (vehicle was water:ethanol:propyleneglycol at proportional ratio of 1:1:1) for 1 hour before CCRC construction, to thereby induce tolerance to nitroglycerine. At the end of the tolerance induction period, rings were thrice washed with the path buffer (Krebs-bicrbonate) every 15 minutes for the following hour and then CCRC for vasorelaxation on GTN-induced tolerance rings were constructed for GTN (pretreated versus untreated rings, FIG. 15), in order to verify the ability to induce and measure GTN tolerance induction in vitro
Attempted induction of tolerance to the NO-donating compounds of the present invention was performed under the same conditions as for GTN. Thus, in an exemplary experiment, rings were exposed to 0.44 mM solution of Pet-3 in the attempt to induce tolerance for Pet-3. CCRC were then measured for the vasorelaxing effect of Pet-3 on a group of rings which were pre-exposed to Pet-3 as to induce tolerance to Pet-3, and for an untreated control group. The above protocol was repeated with Pet-2, Pet-7, Pet-8, Pet-12, Pet-24, Pet-43, Pet-149 and Pet-152.
Cross-tolerance studies were conducted using the same technique described above for measuring vasorelaxation of aortic rings from rats. Two groups of aortic rings samples were pre-treated with GTN, then one group was measured for vasorelaxation by GTN and the second group for vasorelaxation by Pet-12, an exemplary NO-donor according to the present invention. For the opposite cross-tolerance studies, two groups of aortic rings samples were pre-treated with Pet-12, then one group was measured for vasorelaxation by GTN and the second group for vasorelaxation by Pet-12.

[3] = test system: c-GMP in slices of thoracic aorta of rats; experiment: Cyclic-GMP measurement in aortic rat tissue (radioimmunoassay); type: cell-based; settings: rat aorta; for cGMP Post-infusion: post-infusion (repeated treatment)
Experimental: GTN (10^−6 M) was added to the chamber and, 1 minute after exposure to the drug, rings (usually 3–5) were taken, wrapped with aluminum foil and immediately frozen in liquid nitrogen for storage. Control sample group was treated with the vehicle solution only. At the time of analysis, rings were thawed, blotted over a dry gauzed and weighted. A known weight of tissue was homogenized in 2 ml ice-cold modified Hank's balanced salt solution containing (in gram/liter) NaCl 8; KCl 0.4; glucose 1; KH2PO4 0.06; Na2HPO4 0.047; Phenol red 0.017 and further containing 25 mM EDTA (disodium salt). The homogenate was centrifuged at 4000 g (force units) for 10 minutes at 2–4° C. and the supernatant was thereafter transferred into fresh pre-cooled test tube containing 1 ml of acetonitrile. The tubes were vortex mixed for a few seconds and subsequently centrifuged at 4000 g for 5 minutes at 2–4° C., to remove the precipitated protein. Each supernatant was transferred into a clean test tube and evaporated to dryness under a stream of nitrogen at 55° C. The dry residue was reconstituted with 10 volumes of Tris-EDTA buffer pH 7.5 (0.05 M Tris containing 4 mM EDTA). Aliquots of 100 μl of the reconstituted solution in duplicate were used for c-GMP measurements using Amersham RIA kit, as is described in Haj-Yehia & Benet [Pharmacology, 1995, 273, 1, pp. 94–100]. Standard curves were plotted with six concentrations (0, 0.5, 1, 2, 4 and 8 pmoles of c-GMP per tube).
The NO-tolerance effect of GTN and NO-donor compounds according to the present invention was measured by following the production of c-GMP in slices of thoracic aorta of rats. Thus, the production of c-GMP was measured as described in the methods section above for the reference NO-donor compound GTN, and for the NO-donors of the present invention Pet-2, Pet-3, Pet-7, Pet-8, Pet-10, Pet-12, Pet-24, Pet-59, Pet-147, Pet-149, Pet-152, Pet-154 and Pet-155.

[4] = test system: anesthetized hypertensive Sprague-Dawley male rats; experiment: Hypotensive effects: mean arterial pressure after iv bolus in phenylephrine-treated rats; type: in vivo; settings: rat
Experimental: Mean arterial pressure (MAP) was monitored and determined during bolus infusion of Pet-2, Pet-3, Pet-7, Pet-8, Pet-12 and Pet-13. Briefly, polyethylene catheters (PE50) were inserted into the carotid artery and into the jugular vein of anesthetized hypertensive Sprague-Dawley male rats (200–300 grams). A blood pressure recorder was placed within the carotid artery. Phenylephrine (0.1 mg) was then injected and the mean arterial blood pressure (MABP) was monitored continuously until a stable baseline was reached. The hypotensive effects of intravenous (iv) bolus doses (0.1 mg of each tested compound) administered intravenously at the jugular vein in minimal volume of vehicle (0.2 ml per dose) were evaluated. Five minutes were allowed between each dose, during which the maximal decrease in MAP was recorded and a dose-response graph comparing the hypotensive effect of the compounds was constructed.

[5] = test system: Male Sprague Dawley rats; experiment: Induction of in vivo nitrate tolerance: cGMP in aorta of rats infused with the compound; design: species or system rat; settings: for level of cGMP following a repeated treatment in vivo: aorta of rats pre-treated in vivo, re-exposed to 1 μM; for in vivo tolerance induction: cGMP in aorta of rats pre-treated in vivo with the compound, 200 μg/hour for 16 hours
Experimental: For c-GMP levels and tolerance development, the rat's thoracic aorta was isolated after exposure to the tested compound in vivo, and measured as described above in the in vitro assays.
Male Sprague Dawley rats (220 to 250 grams) were housed under constant temperature and humidity conditions. Light was maintained at a 12/12 light dark cycle. Except for 12 hours before the experiment, when food fasting was initiated, all rats had free access to standard rat pellet diet and tap water. The animals were anesthetized by intraperitoneal injection of ketamine and xylazine combination (50 and 10 milligram per kilogram, respectively). […] The catheters were filled with normal saline solution containing 1000 IU/ml of heparin and plugged with a metal pin. Catheters were externalized to the back of the neck region and secured by a polyester felt disk.
After implantation, the rats were individually housed until they regained their preoperative weight and appeared healthy (3 to 4 days post-operation). At this time point (day 0), an osmotic mini-pump (Alza Corp., Palo Alto, Calif.) delivering constant volume (10 μl/hour) of vehicle or drug was connected to one of the intravenous catheters.
For inducing tolerance to the tested NO-donor according to the present invention, the animals received 200 μg/hour of the tested compound for 16 hours (short-term-induced tolerance). A similar number of animals were processed by the same surgical procedure and received the vehicle alone (10 μl/hour of a solution consisting of 30% ethanol and 30% propylene glycol in sterile distilled water for injection).
At the end of the infusion periods used for the development of tolerance (16 hour), the rats were anesthetized as described above, the two catheters were externalized and the delivering catheters were disconnected from the mini-pump. The abdomen was opened by midline incision and the thoracic aorta were isolated, washed and cleaned from the surrounding tissues. Strips of the treated aortas were pooled in chambers containing Krebs-Hanseliet buffer (10 ml), and exposed to 1 μM of the tested NO-donor (final concentration) for 120 seconds. The tissues were quickly collected and frozen in liquid nitrogen for cGMP measurement, described hereinabove.

[6] = vasorelaxation, rat aortic rings contracted with 1 μM epinephrine, 10^−10 M to 10^−5 M, read-out: Concentration
[7] = vasorelaxation, rat aortic rings contracted with 1 μM epinephrine, given as negative log value, read-out: EC50 (converted)
[8] = vasorelaxation of rings pre-exposed to 0.44 mM of the same compound for 1 hour, given as negative log value, read-out: EC50 (converted)
[9] = vasorelaxation of rings pre-exposed to 0.44 mM of the same compound for 1 hour, read-out: Concentration

Q: `O=[N+]([O-])OCC(CO[N+](=O)[O-])O[N+](=O)[O-]` [GTN, glyceryl trinitrate, reference compound] was tested. Which EC50 [1, 6] did it give?
A: 44.7 nM

Q: What about the EC50 [1, 7] of the same compound?
A: 28.2 nM

Q: What about the EC50 [2, 8] of the same compound?
A: 31.6 nM

Q: And the EC50 [2, 9]?
A: 44.7 nM

Q: What about the “tolerance induction in vitro” value [2] of the same compound?
A: tolerance induced

Q: And the “c-GMP level following a repeated treatment” value [3]?
A: significantly reduced

Q: What about the “cGMP Post-infusion” value [3] of the same compound?
A: 45 ± 12 pmol/g tissue

Q: And the “cGMP Pre-infusion” value [3]?
A: 127 ± 11 pmol/g tissue

Q: And the “hypotensive effect on MAP following successive administrations” value [4]?
A: attenuation

Q: What about the “level of cGMP following a repeated treatment in vivo” value [5] of the same compound?
A: decreased

Q: What about the “in vivo tolerance induction” value [5] of the same compound?
A: tolerance inducing effect

Q: For `CCc1nc(C)c(CCO[N+](=O)[O-])s1` [Pet-2, 2-Ethyl-4-methyl-5-(2-nitrooxy-ethyl)-thiazole], which EC50 ([1]; Rattus norvegicus) is on record?
A: 25.1 nM

Q: What about the EC50 ([1]; Rattus norvegicus, read-out: Concentration) of the same compound?
A: 25.1 nM

Q: And the “vasorelaxation effect as compared with glyceryltrinitrate” value ([1]; isolated rat aorta, 1 μM epinephrine)?
A: superior

Q: What about the EC50 ([2]; 1 h) of the same compound?
A: 39.8 nM

Q: And the EC50 ([2]; 1 h, read-out: Concentration)?
A: 39.8 nM

Q: What about the “cGMP Post-infusion” value [3] of the same compound?
A: 140 ± 13 pmol/g tissue

Q: What about the “cGMP Pre-infusion” value [3] of the same compound?
A: 143 ± 13 pmol/g tissue

Q: What about the “level of cGMP following a repeated treatment in vivo” value [5] of the same compound?
A: remained substantially unchanged

Q: And the “in vivo tolerance induction” value [5]?
A: absence of tolerance induction; also recorded: absence of tolerance effect

Q: With `Cc1nc(-c2cccnc2)sc1CCO[N+](=O)[O-]` [Pet-12, 3-[4-Methyl-5-(2-nitrooxy-ethyl)-thiazole-2-yl]-pyridine] as the compound, how does the EC50 [1, 6] read?
A: 39.8 nM

Q: And the EC50 [1, 7]?
A: 39.8 nM

Q: And the EC50 [2, 8]?
A: 63.1 nM

Q: And the EC50 [2, 9]?
A: 63.1 nM

Q: And the “vasorelaxation in rings pre-treated with GTN (cross-tolerance, words)” value ([2]; rings made tolerant to GTN)?
A: absence of tolerance induction effect; also recorded: no effect

Q: And the “tolerance after pre-treatment with Pet-12, to itself and to GTN” value ([2]; rings pre-treated with Pet-12)?
A: absence of tolerance induction effect; also recorded: does not evoke tolerance

Q: And the “tolerance induction in vitro” value [2]?
A: absence of tolerance induction

Q: What about the “cGMP Post-infusion” value [3] of the same compound?
A: 112 ± 12 pmol/g tissue

Q: What about the “cGMP Pre-infusion” value [3] of the same compound?
A: 127 ± 11 pmol/g tissue

Q: What about the “in vivo tolerance induction” value [5] of the same compound?
A: absence of tolerance induction; also recorded: absence of tolerance effect; also recorded: lack of tolerance induction
